Data on 82 compounds can be found in the Kinase Knowledgebase extract (Sharma et al. 2016).

A word on the IC50: it is the concentration that gives 50% inhibition. What is called EC50 is the concentration giving half of the maximal effect. A low value points to greater potency.

The target in the first experiment is EGFR (Hamster) (UniProt P00533).
Experiment: not given
Conditions: not given
Consider `COC(=O)c1cc(N=Cc2cc(OC)ccc2OC)ccc1O`, for which the IC50 is more than 10 µM.

`COC(=O)c1cc(N=Cc2cccc(O)c2)ccc1O` displayed an IC50 of more than 100 µM.

As for `O=C(O)c1cccc(N=Cc2cc(O)ccc2O)c1`, the IC50 was more than 10 µM.

Turning to `COC(=O)c1cc(N=Cc2ccccc2O)ccc1O`, the IC50 was more than 100 µM.

Consider `COC(=O)c1cc(NCc2cc(OC)ccc2OC)ccc1O`, for which the IC50 is more than 100 µM.

In turn, `COC(=O)c1cc(N=Cc2ccc(O)cc2O)ccc1O` came in with an IC50 of more than 100 µM.

A further experiment addresses EGFR (UniProt P00533).
Experiment: not given
As to conditions: cho.ir.
`O=C1C(O)=C(c2c[nH]c3ccccc23)C(=O)C(O)=C1c1ccccc1` displayed an EC50 of 20 µM.

Regarding `C=CC(C)(C)c1[nH]c2ccccc2c1C1=C(O)C(=O)C(c2c[nH]c3c(CC=C(C)C)cccc23)=C(O)C1=O`, the EC50 came out at 15 µM.

With `Cc1cccc2c(C3=C(O)C(=O)C(c4c[nH]c5ccccc45)=C(O)C3=O)c[nH]c12`, the concentration giving a half-maximal response (EC50) is 25 µM.

The experiment is the same for the next values; noted with them: cho.ir, concentration not given here.
In turn, `O=C1C(O)=C(c2coc3ccccc23)C(=O)C(O)=C1c1ccccc1` came in with an activation of less than 5%.

Compound `O=C1C(O)=C(c2csc3ccccc23)C(=O)C(O)=C1c1ccccc1` registered an activation of less than 5%.

In turn, `COc1ccc(C2=C(O)C(=O)C(c3ccccc3)=C(O)C2=O)cc1` gave an activation of less than 5%.

Consider `Cn1cc(C2=C(O)C(=O)C(c3ccccc3)=C(O)C2=O)c2ccccc21`, for which the activation is less than 5%.

A further experiment has as its target EGFR (human) (UniProt P00533).
Experiment: not given
The note with it: hn5.
Turning to `CS(=O)(=O)CCNCc1nc(-c2ccc3ncnc(Nc4ccc5c(cnn5Cc5ccccc5)c4)c3c2)cs1`, the IC50 turned out to be 110 nM.

`CS(=O)(=O)CCNCc1nc(-c2ccc3ncnc(Nc4ccc(OCc5ccccc5)c(Cl)c4)c3c2)cs1` gave an IC50 of 230 nM.

On to `CS(=O)(=O)CCNCc1nc(-c2ccc3ncnc(Nc4ccc(OCc5ccccc5)cc4)c3c2)cs1`, for which the IC50 came to 1600 nM.

With `CS(=O)(=O)CCNCc1nc(-c2ccc3ncnc(Nc4ccc(F)c(Cl)c4)c3c2)cs1`, the concentration for half-maximal inhibition (IC50) was found to be 570 nM.

For another experiment, the target named is PIK3CG (UniProt P48736). Kind of experiment: Inhibition of PIK3CG Kinase Activity.
Chain of PIK3CG (P48736 whole entry, looked up): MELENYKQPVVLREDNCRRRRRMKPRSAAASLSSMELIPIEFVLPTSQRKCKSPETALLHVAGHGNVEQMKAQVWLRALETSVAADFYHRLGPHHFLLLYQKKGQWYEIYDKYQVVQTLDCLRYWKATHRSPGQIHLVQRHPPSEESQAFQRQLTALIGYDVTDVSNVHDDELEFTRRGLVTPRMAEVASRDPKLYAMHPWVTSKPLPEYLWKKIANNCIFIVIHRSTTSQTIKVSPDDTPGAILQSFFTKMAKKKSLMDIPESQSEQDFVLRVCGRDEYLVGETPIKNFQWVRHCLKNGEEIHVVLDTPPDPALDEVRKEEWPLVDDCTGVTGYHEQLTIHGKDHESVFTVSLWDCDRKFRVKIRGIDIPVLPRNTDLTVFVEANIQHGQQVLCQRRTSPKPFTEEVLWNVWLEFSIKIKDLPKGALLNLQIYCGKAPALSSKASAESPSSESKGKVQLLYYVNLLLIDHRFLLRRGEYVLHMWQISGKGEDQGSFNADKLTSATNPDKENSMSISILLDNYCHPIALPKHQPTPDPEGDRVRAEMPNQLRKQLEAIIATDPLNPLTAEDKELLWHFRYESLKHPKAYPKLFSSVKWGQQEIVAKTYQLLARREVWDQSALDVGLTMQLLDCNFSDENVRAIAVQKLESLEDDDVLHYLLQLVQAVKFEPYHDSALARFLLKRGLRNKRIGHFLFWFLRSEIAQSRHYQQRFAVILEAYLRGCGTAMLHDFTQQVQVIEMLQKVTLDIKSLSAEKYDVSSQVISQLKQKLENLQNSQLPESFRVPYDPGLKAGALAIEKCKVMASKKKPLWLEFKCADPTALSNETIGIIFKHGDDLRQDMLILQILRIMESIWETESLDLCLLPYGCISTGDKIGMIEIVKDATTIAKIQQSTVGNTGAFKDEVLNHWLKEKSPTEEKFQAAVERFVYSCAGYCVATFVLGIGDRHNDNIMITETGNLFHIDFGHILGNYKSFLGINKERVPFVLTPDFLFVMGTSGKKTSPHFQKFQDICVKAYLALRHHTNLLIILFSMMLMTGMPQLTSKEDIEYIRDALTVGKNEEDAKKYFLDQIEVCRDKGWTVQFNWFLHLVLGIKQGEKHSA
Conditions: not given
For the compound `N#CN=C1NC(=O)/C(=C/c2ccc3nccnc3c2)S1`, the IC50 is less than 1000 nM.

With `COC(=O)c1sccc1S(=O)(=O)N=C1NC(=O)/C(=C/c2ccc3ncccc3c2)S1`, the IC50 is less than 1000 nM.

Consider `CN=C1NC(=O)/C(=C/c2ccc3ncnc(N(C)C)c3c2)S1`, for which the IC50 is less than 1000 nM.

In the case of `O=C1NC(=NCc2ccccc2)S/C1=C\c1ccc2c(c1)OCO2`, the IC50 was less than 1500 nM.

`CON=C1NC(=O)/C(=C/c2ccc3c(c2)OCO3)S1` showed a half-maximal inhibitory concentration (IC50) of less than 1000 nM.

For a further experiment, the target named is MAPK14 (human) (UniProt Q16539). Kind of experiment: Inhibition of LPS Induced TNF-alpha Production in THP-1 Cells. The note with it: thp1.
Chain of MAPK14 (human) (Q16539 whole entry, looked up): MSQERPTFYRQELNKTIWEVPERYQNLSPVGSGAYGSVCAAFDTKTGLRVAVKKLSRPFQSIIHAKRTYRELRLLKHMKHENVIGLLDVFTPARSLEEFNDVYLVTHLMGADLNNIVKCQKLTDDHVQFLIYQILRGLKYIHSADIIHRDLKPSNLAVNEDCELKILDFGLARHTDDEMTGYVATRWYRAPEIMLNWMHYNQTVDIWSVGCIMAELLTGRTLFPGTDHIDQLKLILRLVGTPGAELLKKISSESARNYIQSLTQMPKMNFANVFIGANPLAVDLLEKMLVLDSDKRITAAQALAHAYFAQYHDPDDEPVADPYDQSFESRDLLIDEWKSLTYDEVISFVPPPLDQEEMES
For the compound `Cc1ccc(C(N)=O)cc1Nc1nc(NCCc2ccc(F)cc2)nc(N[C@H]2CCNC2)n1`, the IC50 was more than 5000 nM.

Take `CCC(C)N(C)c1nc(Nc2cc(C(N)=O)ccc2C)nc(N[C@H]2CCNC2)n1` (some centres undefined): the IC50 was found to be 325 nM.

`COC(=O)c1ccc(C)c(Nc2nc(N[C@H]3CCNC3)nc(N(C)CC(C)(C)C)n2)c1` gave an IC50 of more than 250 nM.

In turn, `Cc1ccc(C(N)=O)cc1Nc1nc(N[C@H]2CCNC2)nc(N(C)C2CCCCC2)n1` showed an IC50 of 1300 nM.

As to `Cc1ccc(C(N)=O)cc1Nc1nc(NCC(C)C)nc(N[C@H]2CCNC2)n1`, the IC50 is more than 5000 nM.

The target of another experiment is EGFR (murine) (UniProt P00533).
Experiment: not given
The note with it: nih3t3.
`COc1ccc2nc(C)c(-c3ccccc3)nc2n1`: the IC50 is more than 100 µM.

`Fc1ccc(CNc2ccc3nc(-c4ccccc4)c(-c4ccccc4)nc3n2)cc1` had an IC50 of more than 100 µM.

On to `Cc1nc2ccc(NCc3ccc(F)cc3)nc2nc1-c1ccccc1`, for which the IC50 is more than 100 µM.

Compound `COc1ccc2nc(-c3ccccc3)c(-c3ccccc3)nc2n1` returned an IC50 of more than 100 µM.

For `c1ccc(Nc2ccc3ncc(-c4ccccc4)nc3n2)cc1`, the IC50 was more than 50 µM.

`Oc1ccc(-c2cnc3ccc(NCc4ccccc4)nc3n2)cc1` returned an IC50 of more than 50 µM.

In the next experiment the target is MAPK14 (UniProt Q16539). Kind of experiment: p38-alpha Kinase Inhibition.
Chain of MAPK14 (Q16539 whole entry, looked up): as above
Conditions: not given
`O=C(c1ccc2[nH]c3c(c2c1)CCNC3)N1CCC(Cc2ccc(F)cc2)CC1` returned an IC50 of 243 nM.

Compound `COc1c(C(=O)N2CCC(Cc3ccc(F)cc3)CC2)ccc2[nH]c3c(c12)CCNC3` yielded an IC50 of 242 nM.

`O=C(c1ccc2[nH]c3c(c2c1)CCNC3)N1CCC(Cc2ccccc2)CC1` had an IC50 of 330 nM.

In the next experiment the target is EGFR (UniProt P00533).
Experiment: not given
Conditions: not given
The compound `O=C(Nc1ccc(Br)cc1)Nc1ncnc2nn3ccccc3c12` came in with an IC50 of more than 10 µM.

As to `O=C(Nc1ccc(F)cc1)Nc1ncnc2nn3ccccc3c12`, the 50% inhibitory concentration (IC50) is more than 10 µM.

`O=C(Nc1cccc([N+](=O)[O-])c1)Nc1ncnc2nn3ccccc3c12` had an IC50 of more than 10 µM.

Compound `O=C(Nc1cccc(C(F)(F)F)c1)Nc1ncnc2nn3ccccc3c12` gave an IC50 of more than 10 µM.

With `O=C(Nc1ccc(C(F)(F)F)cc1)Nc1ncnc2nn3ccccc3c12`, the IC50 was more than 10 µM.

As for `N#Cc1cccc(NC(=O)Nc2ncnc3nn4ccccc4c23)c1`, the IC50 was more than 10 µM.

The target of another experiment is EGFR (UniProt P00533).
Experiment: not given
Conditions: not given
This is another data set of the same source.
In turn, `Nc1cc2c(Nc3cccc(Br)c3)ncnc2cn1` returned an IC50 of 0.13 nM.

For the compound `Nc1ccc2ncnc(Nc3cccc(Br)c3)c2n1`, the IC50 turned out to be 7.6 nM.

`CNc1cc2c(Nc3cccc(Br)c3)ncnc2cn1`: the IC50 is 0.008 nM.

For `CN(C)c1cc2c(Nc3cccc(Br)c3)ncnc2cn1`, the IC50 is 0.006 nM.

Consider `COc1cc2c(Nc3cccc(Br)c3)ncnc2cn1`, for which the IC50 amounted to 0.0026 nM.

In turn, `COc1ccc2ncnc(Nc3cccc(Br)c3)c2c1` displayed an IC50 of 30 nM.

For another experiment, the target named is MAPK14 (human) (UniProt Q16539). Kind of experiment: Inhibition of MAPK14 Kinase Activity.
Conditions: not given
In turn, `CCC(C)N(C)c1nc(Nc2cc(C(N)=O)ccc2C)nc(N[C@H]2CCNC2)n1` (some centres undefined) registered an IC50 of 28 nM.

Regarding `Cc1ccc(C(N)=O)cc1Nc1nc(N[C@H]2CCNC2)nc(N(C)C2CCCCC2)n1`, the IC50 was 250 nM.

The next experiment concerns the target MAPK14 (UniProt Q16539).
Experiment: not given
Conditions: not given
As for `COc1ccc(Oc2cc(-c3c(-c4ccc(F)cc4)ncn3C3CCNCC3)ccn2)cc1`, the inhibition was less than 50 µM.

As to `Fc1ccc(Oc2nccc(-c3c(-c4ccc(F)cc4)ncn3CCCN3CCOCC3)n2)cc1`, the inhibition is less than 50 µM.

Consider `Fc1ccc(Oc2cc(-c3c(-c4ccc(F)cc4)ncn3C3CCNCC3)ccn2)cc1`, for which the inhibition is less than 50 µM.

For `Fc1ccc(-c2ncn(C3CCNCC3)c2-c2ccnc(Sc3ccccc3)c2)cc1`, the inhibition was less than 50 µM.

As to `Cn1nnnc1Sc1cc(-c2c(-c3ccc(F)cc3)ncn2C2CCNCC2)ccn1`, the inhibition was less than 50 µM.

`Fc1ccc(-c2ncn(C3CCNCC3)c2-c2ccnc(Oc3ccccc3)c2)cc1` registered an inhibition of less than 50 µM.

In the next experiment the target is EGFR (UniProt P00533). In words: EGFR Kinase Inhibition.
Conditions: not given
`CN1CCN(CCCCCNc2ncc3cc(-c4c(Cl)cccc4Cl)c(=O)n(C)c3n2)CC1` came in with an IC50 of 4.5 µM.

`Cn1c(=O)c(-c2c(Cl)cccc2Cl)cc2cnc(NCCCCCC(=O)O)nc21` displayed an IC50 of 1 µM.

With `CC(C)[C@@H](NC1=C(CC2CCCC3CCCCC32)C(=O)C(O)=CC1=O)C(=O)O` (some centres undefined), the IC50 was more than 100 µM.

In turn, `C[C@@H](O)[C@@H](NC1=CC(=O)C(N[C@@H](C(=O)O)[C@@H](C)O)=CC1=O)C(=O)O` displayed an IC50 of 44 µM.

The compound `COc1ccc(Nc2ncc3cc(-c4c(Cl)cccc4Cl)c(=O)n(C)c3n2)cn1` displayed an IC50 of 1.3 µM.

The target of the next experiment is MAPK14 (human) (UniProt Q16539). Kind of experiment: Inhibition of LPS-stimulated TNF-alpha Production in Human Monocytic Cells. As to conditions: thp.1 monocytic.
Consider `Fc1ccc(-c2c(-c3ccnc(Oc4ccccc4)n3)nn3c2OCCC3)cc1`, for which the IC50 is more than 10000 nM.

The compound `CC[C@H](C)Nc1nccc(-c2nn3c(c2-c2ccc(F)cc2)OCC3)n1` gave an IC50 of 80 nM.

In turn, `C[C@H](Nc1nccc(-c2nn3c(c2-c2ccc(F)cc2)OCC3)n1)c1ccccc1` registered an IC50 of more than 2000 nM.

On to `COC[C@H](C)Nc1nccc(-c2nn3c(c2-c2ccc(F)cc2)OCC3)n1`, for which the IC50 is 1700 nM.

Compound `CCOCn1nnc(-c2ccncc2)c1-c1ccc(F)cc1` had an IC50 of 490 nM.

The target in another experiment is ROCK2 (human) (UniProt O75116).
Chain of ROCK2 (human) (O75116 whole entry, looked up): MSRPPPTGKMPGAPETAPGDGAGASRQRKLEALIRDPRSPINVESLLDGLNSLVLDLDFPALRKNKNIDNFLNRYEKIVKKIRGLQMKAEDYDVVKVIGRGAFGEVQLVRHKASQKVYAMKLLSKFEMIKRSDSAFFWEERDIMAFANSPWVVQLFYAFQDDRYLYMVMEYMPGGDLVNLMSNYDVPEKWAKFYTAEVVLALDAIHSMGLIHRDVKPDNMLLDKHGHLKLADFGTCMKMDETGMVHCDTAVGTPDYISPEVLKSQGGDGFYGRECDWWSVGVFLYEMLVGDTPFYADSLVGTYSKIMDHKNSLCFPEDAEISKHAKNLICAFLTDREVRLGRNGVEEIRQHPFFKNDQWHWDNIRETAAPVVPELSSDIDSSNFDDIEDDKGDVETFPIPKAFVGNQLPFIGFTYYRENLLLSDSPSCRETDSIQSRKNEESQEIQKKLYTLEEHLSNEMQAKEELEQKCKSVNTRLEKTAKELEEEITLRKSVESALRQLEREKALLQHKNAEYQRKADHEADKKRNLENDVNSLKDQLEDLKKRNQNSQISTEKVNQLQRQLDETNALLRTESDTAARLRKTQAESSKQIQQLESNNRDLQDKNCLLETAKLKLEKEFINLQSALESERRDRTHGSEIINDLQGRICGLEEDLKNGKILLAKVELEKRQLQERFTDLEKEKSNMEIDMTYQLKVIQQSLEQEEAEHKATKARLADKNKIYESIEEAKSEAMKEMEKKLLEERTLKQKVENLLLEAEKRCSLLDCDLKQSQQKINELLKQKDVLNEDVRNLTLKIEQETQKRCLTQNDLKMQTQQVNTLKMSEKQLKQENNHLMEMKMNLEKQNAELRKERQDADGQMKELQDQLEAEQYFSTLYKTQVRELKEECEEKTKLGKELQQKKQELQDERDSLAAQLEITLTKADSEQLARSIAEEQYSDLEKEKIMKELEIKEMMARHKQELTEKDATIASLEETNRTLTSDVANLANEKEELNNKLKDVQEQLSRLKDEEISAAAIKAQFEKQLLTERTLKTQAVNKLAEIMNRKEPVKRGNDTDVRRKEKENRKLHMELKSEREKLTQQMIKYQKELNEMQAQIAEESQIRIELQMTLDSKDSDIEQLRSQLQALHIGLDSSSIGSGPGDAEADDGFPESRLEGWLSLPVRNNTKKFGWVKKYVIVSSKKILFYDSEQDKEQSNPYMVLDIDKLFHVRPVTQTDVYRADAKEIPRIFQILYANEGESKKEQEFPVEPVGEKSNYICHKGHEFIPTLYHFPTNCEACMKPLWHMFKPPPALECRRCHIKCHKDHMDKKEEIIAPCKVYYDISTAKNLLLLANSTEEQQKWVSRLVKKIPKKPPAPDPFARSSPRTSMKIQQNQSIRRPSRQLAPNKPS
Experiment: not given
Conditions: not given
Take `NC(Cc1cccc(Cl)c1)C(=O)Nc1ccc(-c2cn[nH]c2)cc1` (centres undefined): the IC50 turned out to be 2 nM.

Take `CCOc1ccc2c(c1)CC(C(=O)Nc1ccc(-c3cn[nH]c3)cc1OCCN(C)C)NC2` (centres undefined): the IC50 worked out at 850 nM.

Take `COc1ccc2c(c1)CN[C@@H](C(=O)Nc1ccc(-c3cn[nH]c3)cc1OCCN(C)C)C2`: the 50% inhibitory concentration (IC50) is 261 nM.

In turn, `COc1ccc2c(c1)C[C@H](C(=O)Nc1ccc(-c3cn[nH]c3)cc1)NC2` returned an IC50 of 134 nM.

Consider `CCN1Cc2ccc(OC)cc2C[C@@H]1C(=O)Nc1ccc(-c2cn[nH]c2)cc1OCCN(C)C`, for which the IC50 came out at 9 nM.

With `COc1cccc2c1CNC(C(=O)Nc1ccc(-c3cn[nH]c3)cc1OCCN(C)C)C2` (centres undefined), the IC50 worked out at 334 nM.

A further experiment has as its target EGFR (UniProt P00533).
Experiment: not given
As to conditions: concentration not given here.
`NN=C1CCc2c(sc(NC(=O)C3CC3)c2C(N)=O)C1` gave an inhibition of more than 50%.

`NC(=O)c1c(NC(=O)C2CC2)sc2c(O)c(Br)ccc12` yielded an inhibition of more than 50%.

`CC1CC1C(=O)Nc1sc2c(Cl)c(O)ccc2c1C(N)=O` (centres undefined) showed an inhibition of more than 50%.

The compound `NC(=O)c1c(NC(=O)C2CC2)sc2c1CCC(Br)(Br)C2=O` showed an inhibition of more than 50%.

In turn, `NC(=O)c1c(NC(=O)Nc2ccc(F)cc2)sc2c1CCC(=O)C2` yielded an inhibition of more than 50%.

A further experiment has as its target EGFR (UniProt P00533).
Experiment: not given
Conditions: not given
The source holds these as a separate data set.
On to `CN(C)CCCn1nc(C2=C(c3cn(-c4csc5ccccc45)c4ccccc34)C(=O)NC2=O)c2ccccc21`, for which the IC50 was more than 10 µM.

In turn, `CN(C)CCCn1nc(C2=C(c3cn(-c4cnc5ccccc5c4)c4ccccc34)C(=O)NC2=O)c2ccccc21` came in with an IC50 of more than 10 µM.

Turning to `CN(C)CCCn1nc(C2=C(c3cn(-c4ccc5ccccc5c4)c4ccccc34)C(=O)NC2=O)c2ccccc21`, the IC50 is more than 10 µM.

With `CN(C)CCCn1nc(C2=C(c3cn(-c4cccnc4)c4ccccc34)C(=O)NC2=O)c2ccccc21`, the IC50 was more than 10 µM.

On to `CN(C)CCCn1nc(C2=C(c3cn(-c4cccs4)c4ccccc34)C(=O)NC2=O)c2ccccc21`, for which the IC50 is more than 10 µM.

`CN(C)CCCn1nc(C2=C(c3cn(-c4cccc5ccccc45)c4ccccc34)C(=O)NC2=O)c2ccccc21` returned an IC50 of more than 10 µM.

The next experiment deals with EGFR (human) (UniProt P00533).
Chain of EGFR (human) (P00533 whole entry, looked up): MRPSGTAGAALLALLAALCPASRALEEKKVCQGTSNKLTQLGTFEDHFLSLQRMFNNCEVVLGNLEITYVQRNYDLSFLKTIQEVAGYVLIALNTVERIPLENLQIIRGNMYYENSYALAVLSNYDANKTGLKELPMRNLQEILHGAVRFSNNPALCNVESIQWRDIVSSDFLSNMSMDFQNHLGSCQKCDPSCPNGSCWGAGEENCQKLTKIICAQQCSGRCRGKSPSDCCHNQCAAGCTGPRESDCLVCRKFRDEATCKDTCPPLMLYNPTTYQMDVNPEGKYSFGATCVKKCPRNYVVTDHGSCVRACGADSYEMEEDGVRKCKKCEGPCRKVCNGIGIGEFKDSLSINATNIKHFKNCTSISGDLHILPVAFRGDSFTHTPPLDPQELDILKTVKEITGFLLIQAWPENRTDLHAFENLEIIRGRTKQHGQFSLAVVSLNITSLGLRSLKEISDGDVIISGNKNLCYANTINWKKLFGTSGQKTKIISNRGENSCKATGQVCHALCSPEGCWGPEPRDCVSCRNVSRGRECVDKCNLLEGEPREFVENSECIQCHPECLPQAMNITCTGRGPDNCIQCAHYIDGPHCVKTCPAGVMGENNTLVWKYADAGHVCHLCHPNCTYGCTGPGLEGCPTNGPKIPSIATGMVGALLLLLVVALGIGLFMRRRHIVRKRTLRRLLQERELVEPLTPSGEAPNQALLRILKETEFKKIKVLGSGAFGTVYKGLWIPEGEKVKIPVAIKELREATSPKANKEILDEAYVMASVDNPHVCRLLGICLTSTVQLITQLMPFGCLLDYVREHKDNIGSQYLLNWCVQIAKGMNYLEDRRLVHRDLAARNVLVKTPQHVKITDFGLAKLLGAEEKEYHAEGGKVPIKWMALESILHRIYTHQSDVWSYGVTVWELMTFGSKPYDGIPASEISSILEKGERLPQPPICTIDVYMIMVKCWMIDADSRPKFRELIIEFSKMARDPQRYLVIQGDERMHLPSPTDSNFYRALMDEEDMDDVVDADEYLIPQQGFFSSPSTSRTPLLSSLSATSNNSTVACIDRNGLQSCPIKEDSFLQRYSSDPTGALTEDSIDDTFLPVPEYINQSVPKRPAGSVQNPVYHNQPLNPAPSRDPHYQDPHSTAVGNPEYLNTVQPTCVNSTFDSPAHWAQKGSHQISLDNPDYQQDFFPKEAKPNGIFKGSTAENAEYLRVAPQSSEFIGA
Experiment: not given
Conditions: not given
For the compound `COc1cc2ncnc(Nc3ccc(F)c(Cl)c3)c2cc1O[C@H]1CCOC1`, the IC50 amounted to 0.13 nM.
